Entries after “also recorded” stand apart in the source; their conditions may differ. Where no end group is shown, it is not given here. The star is where a group is joined. Myristoyl = CCCCCCCCCCCCCC(=O)*
Tested on: spatial long-term memory in PKMζ-null mice
Experiment: Active place avoidance, intrahippocampal injection, PKMζ-null mice
Type: in vivo, mouse
Settings: 5 nmol in 0.5 μl per hippocampus 1 day after conditioning, tested 2 days post-injection
Description: For spatial long-term memory experiments, we adapted the approach used in Garcia-Osta et al. (82). Mice were ˜12-weeks old at surgery. Briefly, to implant the injection cannula hardware, mice were anesthetized by an intraperitoneal (i.p.) injection of a mixture of dexmedetomidine ([…] body weight) and ketamine (28 mg/kg body weight), and mounted in a Kopf stereotaxic frame (Tujunga, CA). The tips of guide cannula (Plastics One, Roanoke, VA; Part Numbers: C235GS-5-2.0) were targeted above the injection target in the dorsal hippocampus (AP-1.94 mm; ML±1.00 mm; DV-0.90 mm). The other injection hardware (Part Numbers: C235DCs-5, 303DC/1; cannula dummy, cannula cap, respectively) was assembled, and antisedan (0.65 mg/kg body weight i.p.) was administered to reverse the sedation at the end of surgery.
Three to four weeks after surgery, the animals received active place avoidance training. […]
Active place avoidance was conducted with a commercial computer-controlled system (Bio-Signal Group, Acton, MA). […] Every 33 ms, the software determined the mouse's position, whether it was in the shock zone, and whether to deliver shock. […]
The tracked animal positions with timestamps were analyzed offline (TrackAnalysis, Bio-Signal Group, Acton, MA) to extract several end-point measures. […]

| Compound | spatial memory retention (time to first enter shock zone), 3-day memory |
| --- | --- |
| O=S(=O)(O)c1cc(O)c2c(S(=O)(=O)O)cc(S(=O)(=O)O)cc2c1 [ζ-stat, 1-naphthol-3,6,8-trisulphonic acid] | avoided the shock zone as well as those that had received vehicle; also recorded: not different than vehicle |
| myr-N-FVRNSLERRSVRMKRPS-C (Myristoyl-FVRNSLERRSVRMKRPS) [K-ZAP] | has no effect on memory retention; also recorded: intact memory retention |

From patent US20250154212A1, “METHOD OF DISRUPTING MEMORY AND LIPOPEPTIDE FOR USE IN SUCH METHOD” (The Research Foundation for The State University of New York, priority 2023, published 2025)
